The source of these data is paper PMC10401832 (Biotechnology for Biofuels and Bioproducts, 2023).

One may read the Km as the substrate concentration at which the rate is half of its maximum.

For one data set, the target named is T1, GsAlaDH (Geobacillus stearothermophilus, UniProt P17557).
T1 construct: gene ald; possible hexamer (model)
Briefly: spectrophotometric NADH change at […] nm. The class given is biochemical. The note with it: oxidative deamination, NAD+, Na2CO3-NaHCO3 pH 10.0; Table 1 heads this block 'Reductive reaction' but text assigns it to L-alanine.

Substrate in the data set “purified protein”: CC(=O)C(=O)O
Briefly: purified protein. The class given is biochemical, Bacillus subtilis. The note with it: reductive amination, NADH and NH4Cl, Tris-HCl pH 8.0, Table 1 heads this block 'Oxidative reaction' but text assigns it to pyruvate.

T1 sequence (P17557 whole entry): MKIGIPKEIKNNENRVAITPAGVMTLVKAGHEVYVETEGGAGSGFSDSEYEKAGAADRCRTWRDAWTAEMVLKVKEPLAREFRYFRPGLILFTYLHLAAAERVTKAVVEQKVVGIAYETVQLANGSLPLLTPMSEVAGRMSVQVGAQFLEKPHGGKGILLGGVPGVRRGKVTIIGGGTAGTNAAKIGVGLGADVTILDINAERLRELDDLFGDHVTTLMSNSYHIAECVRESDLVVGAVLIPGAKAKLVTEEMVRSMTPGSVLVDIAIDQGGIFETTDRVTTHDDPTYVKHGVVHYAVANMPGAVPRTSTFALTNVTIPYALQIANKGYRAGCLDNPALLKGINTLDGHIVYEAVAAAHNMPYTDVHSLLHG

As for `C[C@H](N)C(=O)O` [L-alanine], at GsAlaDH, the Km is 810 ± 250 µM.

B1: BsAlaDH (Bacillus subtilis subsp. subtilis str. 168) (protein)
chain: MIIGVPKEIKNNENRVALTPGGVSQLISNGHRVLVETGAGLGSGFENEAYESAGAEIIADPKQVWDAEMVMKVKEPLPEEYVYFRKGLVLFTYLHLAAEPELAQALKDKGVTAIAYETVSEGRTLPLLTPMSEVAGRMAAQIGAQFLEKPKGGKGILLAGVPGVSRGKVTIIGGGVVGTNAAKMAVGLGADVTIIDLNADRLRQLDDIFGHQIKTLISNPVNIADAVAEADLLICAVLIPGAKAPTLVTEEMVKQMKPGSVIVDVAIDQGGIVETVDHITTHDQPTYEKHGVVHYAVANMPGAVPRTSTIALTNVTVPYALQIANKGAVKALADNTALRAGLNTANGHVTYEAVARDLGYEYVPAEKALQDESSVAGA
notes: primers imply N-term MIIGVP, C-term SVAGA; about 45-55 kDa; possible hexamer (model)
Regarding B1, in the data set “purified protein”, the Km was determined as 70 ± 30 µM.
